Results reported in patent US20230399312A1, “SUBSTITUTED PYRIMIDINES AND METHODS OF USE” (THERAVANCE BIOPHARMA R&D IP, LLC, priority 2020, published 2023).
pKi: −log10 of the molar value.

Experiments:
[1] = target: T1, recombinant human ALK5 (TGF-βR1) protein (Homo sapiens, UniProt P36897); assay: Biochemical ALK5 (TGF-βR1) assay to measure pKi (LANCE Ultra ULight kinase assay); details: apparent pKi, converted from pIC50 by Cheng-Prusoff
T1 construct: purchased Life Technologies PR9075A
T1 sequence (P36897 34-503): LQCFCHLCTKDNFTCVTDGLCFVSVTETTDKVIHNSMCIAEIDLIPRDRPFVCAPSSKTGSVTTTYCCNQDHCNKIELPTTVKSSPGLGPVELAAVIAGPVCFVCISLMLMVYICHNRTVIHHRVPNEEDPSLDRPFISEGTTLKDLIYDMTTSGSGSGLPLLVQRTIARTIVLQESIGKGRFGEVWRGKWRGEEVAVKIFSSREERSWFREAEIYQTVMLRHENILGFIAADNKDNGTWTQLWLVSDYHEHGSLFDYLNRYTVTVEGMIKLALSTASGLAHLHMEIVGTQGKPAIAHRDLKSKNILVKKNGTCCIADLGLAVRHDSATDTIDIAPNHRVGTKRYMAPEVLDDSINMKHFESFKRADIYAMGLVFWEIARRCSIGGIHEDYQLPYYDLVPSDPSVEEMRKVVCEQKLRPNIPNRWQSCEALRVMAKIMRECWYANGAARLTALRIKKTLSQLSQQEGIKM
Method in brief: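 Enzyme preincubated with compound for 60 min at room temperature, then reacted with ATP (125 μM as 5× stock) for 60 min at 37 °C. Stopped with EDTA plus Eu-anti-phospho-Topoisomerase 2-alpha (Thr1342) antibody and read by TR-FRET at 665 nm. pIC50 from a 4-parameter fit, converted to pKi by Cheng-Prusoff.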

[2] = tested on: TGF-β-stimulated SMAD3 phosphorylation in BEAS-2B cells; assay: Cellular ALK5 potency assay, inhibition of TGF-β stimulated pSMAD3 formation in BEAS-2B cells; assay type: cell-based; details: Homo sapiens, pSMAD3, TGF-β 10 ng/mL, read-out: BEAS2B pIC50 (converted)
Method in brief: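 Potency is expressed as pIC50, based on dose-dependent reduction of TGF-β-induced pSMAD3 AlphaLISA signal relative to stimulated cells without compound. BEAS-2B cells received compound 1 h before a 30 min, 10 ng/mL TGF-β challenge.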

pKi [1]	SMILES	IC50 [2] [nM]
9.50 to 10.40	Cc1cccc(-c2nccc(Nc3ccnc(Nc4csc(C(=O)OCCNC5CNC5)c4)n3)n2)n1 [Compound 560, 2-(azetidin-3-ylamino)ethyl 4-[[4-[[2-(6-methyl-2-pyridyl)pyrimidin-4-yl]amino]pyrimidin-2-yl]amino]thiophene-2-carboxylate]	25.1 to 158
9.50 to 10.40	Cc1cccc(-c2nc(Nc3ccnc(Nc4ccc(NC5CCNCC5)cc4)n3)c3cccn3n2)n1 [Compound 1042, N4-[2-(6-methyl-2-pyridyl)pyrrolo[2,1-f][1,2,4]triazin-4-yl]-N2-[4-(4-piperidylamino)phenyl] pyrimidine-2,4-diamine]	25.1 to 158
9.50 to 10.40	Cc1cccc(-c2nccc(Nc3ccnc(Nc4ccc(NCC5CNC5)cc4)n3)n2)n1 [Compound 537, N2-(4-((azetidin-3-ylmethyl)amino)phenyl)-N4-(2-(6-methylpyridin-2-yl)pyrimidin-4-yl)pyrimidine-2,4-diamine]	25.1 to 158
9.50 to 10.40	Cc1cccc(-c2nccc(Nc3ccnc(Nc4ccc(-c5cnn(C6COC6)c5)cc4)n3)n2)n1 [Compound 538, N4-(2-(6-methylpyridin-2-yl)pyrimidin-4-yl)-N2-(4-(1-(oxetan-3-yl)-1H-pyrazol-4-yl)phenyl)pyrimidine-2,4-diamine]	25.1 to 158

More lines, now with the values behind:

SMILES	pKi [1]	IC50 [2] [nM]
COC(=O)C1CN(CCNc2ccc(Nc3nccc(Nc4ccnc(-c5cccc(C)n5)n4)n3)cc2)CCN1C(C)C (stereo not drawn) [Compound 171, methyl 1-isopropyl-4-[2-[4-[[4-[[2-(6-methyl-2-pyridyl)pyrimidin-4-yl]amino]pyrimidin-2-yl]amino]anilino]ethyl] piperazine-2-carboxylate]	8.50 to 9.40	25.1 to 158
CN1CCN(C2CCN(c3ccc(Nc4nccc(Nc5ccnc(-c6cc(Cl)c(F)cc6F)n5)n4)cc3)CC2)CC1 [Compound 326, N4-[2-(5-chloro-2,4-difluoro-phenyl)pyrimidin-4-yl]-N2-[4-[4-(4-methylpiperazin-1-yl)-1-piperidyl]phenyl]pyrimidine-2,4-diamine]	9.50 to 10.40	200 to 1260
Cc1cccc(-c2nccc(Nc3ccnc(Nc4ccc(C(=O)OCC5CNC5)s4)n3)n2)n1 [Compound 100, azetidin-3-ylmethyl 5-[[4-[[2-(6-methyl-2-pyridyl)pyrimidin-4-yl]amino]pyrimidin-2-yl]amino]thiophene-2-carboxylate]	9.50 to 10.40	25.1 to 158
Cc1cccc(-c2nccc(Nc3ccnc(Nc4ccc(S(N)(=O)=O)cn4)n3)n2)n1 [Compound 119, 6-[[4-[[2-(6-methyl-2-pyridyl)pyrimidin-4-yl]amino]pyrimidin-2-yl]amino]pyridine-3-sulfonamide]	7.50 to 8.40	25.1 to 158
Cc1cccc(-c2nccc(Nc3ccnc(Nc4ccc(N5CCCC(C(=O)O)C5)cc4)n3)n2)n1 (stereo not drawn) [Compound 454, 1-[4-[[4-[[2-(6-methyl-2-pyridyl)pyrimidin-4-yl]amino]pyrimidin-2-yl]amino]phenyl]piperidine-3-carboxylic acid]	9.50 to 10.40	200 to 1260
Cc1cccc(-c2nccc(Nc3ccnc(Nc4nc(C(=O)N5CCNCC5)cs4)n3)n2)n1 [Compound 510, [2-[[4-[[2-(6-methyl-2-pyridyl)pyrimidin-4-yl]amino]pyrimidin-2-yl]amino]thiazol-4-yl]-piperazin-1-yl-methanone]	9.50 to 10.40	25.1 to 158
Cc1cccc(-c2nccc(Nc3ccnc(Nc4ccc(N5CCOCC5)cc4O)n3)n2)n1 [Compound 410, 2-[[4-[[2-(6-methyl-2-pyridyl)pyrimidin-4-yl]amino]pyrimidin-2-yl]amino]-5-morpholino-phenol]	7.50 to 8.40	25.1 to 158
CC(=O)N1CC(CNc2ccc(Nc3nccc(Nc4ccnc(-c5cccc(C)n5)n4)n3)cc2)C1 [Compound 3, 1-[3-[[4-[[4-[[2-(6-methyl-2-pyridyl)pyrimidin-4-yl]amino]pyrimidin-2-yl]amino]anilino]methyl]azetidin-1-yl]ethanone]	8.50 to 9.40	25.1 to 158
